{"source": "paper PMC12775124", "about": "“CUL4A-DDB1-DCAF10 is an N-recognin for N-terminally acetylated Src kinases” (Nature Communications, 2026)", "key": {"[1]": {"system": "DCAF10", "experiment": "Peptide pull-down with quantitative MS, HeLa lysate, DCAF10", "assay_type": "binding, human (HeLa)", "details": "HeLa lysate", "protocol": "Beads presenting 10-residue synthetic Nt-peptides of proteins of interest in their free (Nt-free) or modified (e.g., Nt-acetylated) versions were incubated with lysates from HeLa cells, followed by MS-based quantification of retained binders (Fig. 1a).\nBiotinylated 10-mer Nt-peptides (Nt-free, Nt-acetylated, and, where indicated, Nt-myristoylated; sequences in Supplementary Table 1) were synthesized with a C-terminal Lys3 spacer and biotin, immobilized on magnetic streptavidin beads, and incubated with HeLa or mouse liver lysates. After standardized washes, bound proteins were on-bead reduced/alkylated, digested with LysC/trypsin, desalted, and analysed by LC-MS in DIA mode (Orbitrap Exploris 480) as described previously[24]. Variants included endogenous Nt-sequences, swap and mutant (Ala-Ala-Ala or Nt-amino acids) peptides, and pairwise comparisons of conditions of interest.\nAll MS experiments were performed as independent biological triplicates. Relative protein quantification was carried out using the label-free algorithm integrated in DIA-NN[53], and statistical testing was performed in Perseus using a two-sided Student’s t test with permutation-based multiple-testing-adjusted p-values[53],[54], as specified in the figure legends. […] Volcano blots were visualized with RStudio (version 2023.06.0). […] Cell experiments were performed as biological replicates, and binding assays as independent assays. […] Data are presented as mean ± s.d. Fold changes are reported as the ratio of the normalized value for the condition of interest to the normalized control value, with mean ± s.d. computed across biological replicates."}, "[2]": {"system": "GST-DCAF10", "experiment": "Streptavidin pull-down of GST-DCAF10 with biotinylated Nt-peptides", "assay_type": "binding, human", "details": "0.5 µM GST-DCAF10, 5 µM peptide, 1 h RT; WB; listed as Nt-acetylated Fyn", "procedure": "To confirm direct interactions between peptides and DCAF10, we performed pull-down assays using bead-bound Nt-peptide variants incubated with purified full-length GST-DCAF10 or GST as a negative control (Fig. 2m–p and Supplementary Fig. 4a).\n230 of 1:100), and desalted/concentrated on C18 reversed phase stage tips as previously\nMS measurements settings are stated in MS measurements and raw file\nBL21(DE3) cells (Thermo Fisher Scientific,\n240 agar) plate containing 100 μg/mL ampicillin and 34 μg/mL chloramphenicol, then\nTerrific broth (TB) medium (24 g/L yeast extract,\n243 20 g/L tryptone, glycerol 4 mL/L, 100 mL/L phosphate buffer containing 0.17 M KH2PO4\n244 and 0.72 M K2HPO4) was used to prepare a 1:100 dilution of the starter culture, and OD600\nAt OD600 = 1, protein induction was initiated by adding 1 mM\n247 day, pellets were homogenized and lysed in glycerol lysis buffer (20 mM Tris-HCl pH\nLysis was performed on ice for 30 min, followed by\n250 sonication (7 × 20 sec pulses with 20 sec breaks on ice) using a Bandelin sonoplus\nLysates were centrifuged at 4°C for 1 h\n253 medium culture was lysed in 20 mL of supernatant (collected in 20 × 1 mL tubes). GST\n255 agarose bead; Thermo Fisher Scientific, Waltham, MA, USA). For each 1 mL of\n100 μL of GST magnetic beads\n257 were washed twice with 500 μL of wash buffer (125 mM Tris-HCl pH 7.4, 150 mM NaCl,\nThe lysis supernatant was diluted 1:1 with\n259 wash buffer, and incubated with the beads on an end-over-end rotator for 1 h at 25°C.\n260 After incubation, the supernatant was removed, and the beads were washed twice with\nProtein elution was then performed by incubating\n263 pH 7.4, 250 mM NaCl, 0.3% Triton X-100) for 30 min at 25°C on an end-over-end rotator.\n265 under the same conditions. Elution fractions were pooled and concentrated by\n266 centrifugation (4°C, 25 min, 4500 rpm) using a 30 kDa cut-off concentrator (Merck\n267 Millipore, #UFC803008, Darmstadt, Germany). Purified proteins were analyzed by\n268 colloidal Coomassie stain, WB and MS.\n270 Streptavidin pull-downs with GST-DCAF10 and biotinylated peptides\n271 Streptavidin magnetic beads (DynabeadsTM MyOneTM Streptavidin T1; Thermo Fisher\n272 Scientific, Waltham, MA, USA) were washed twice with 500 μL of wash buffer (125 mM\n273 Tris-HCl pH 7.4, 150 mM NaCl, 0.1% Triton X-100). An excess of peptides was added\n274 (to ensure full occupancy of the beads) and incubated for 30 min at RT. After peptide\n275 binding, beads were again washed three times with 500 μL of wash buffer. The pull-down\n276 was then performed in a 100 μL reaction volume with final concentrations of 0.5 µM\n277 GST-DCAF10 and 5 µM peptide. GST-DCAF10 or GST alone (as a control) was added\n278 to the peptide-streptavidin beads and incubated on a rotator for 1 h at RT. After incubation,\n279 the beads were washed three times with 500 μL of wash buffer and resuspended in 4x\n280 Laemmli buffer. 1/5 of the input (GST-DCAF10 and GST) and 9/10 of the sample were\n281 loaded on a 10% SDS gel and blotted with anti-GST and anti-DCAF10 antibodies, while\n282 1/10 was loaded on a 15% SDS gel and blotted with anti-streptavidin antibody to assess\n283 equal peptide loading.\n285 Streptavidin Sepharose High Performance, GE Healthcare, Chicago, IL, USA) were used.\n286 After washing with a high salt wash buffer without detergents (125 mM Tris-HCl pH 7.4,\n287 400 mM NaCl), an excess of peptides was added and incubated for 30 min at RT. For each\n288 reaction, 10 µL of slurry beads were used. After peptide-binding, beads were again\n289 washed once with a high salt wash buffer without detergents and twice with binding buffer\n290 without detergents (125 mM Tris-HCl pH 7.4, 150 mM NaCl). The pull-downs were\n291 performed in a 100 μL reaction volume in binding buffer without detergents with a final\n292 concentration of 0.5 µM GST-DCAF10 and incubated rotating for 1 h at RT. After\n293 incubation, the beads were washed five times with 500 μL of high salt wash buffer without […]"}, "[3]": {"system": "CUL4A-DDB1-DCAF10", "experiment": "In vitro ubiquitination of Lyn-GFP variants by CUL4A-DDB1-DCAF10", "assay_type": "biochemical, human", "details": "Lyn-GFP variants, NMT1/2 siRNA", "from_the_text": "Lyn^WT-GFP was ubiquitinated by the WT E3 complex in both conditions; however, unlike in vitro ubiquitination with endogenous Lyn (Fig. 5c, d), ubiquitination increased ~6-fold under NMT1/2 siRNA conditions. This is consistent with DCAF10 being limiting and overexpressed Lyn-GFP, accumulating an acetylated fraction available for DCAF10 in vitro. Then, we performed IPs for all Nt variants under NMT1/2 siRNA conditions (Fig. 6d, h–i). […] In vitro ubiquitination assays using untreated cell lysates led to similar results (Supplementary Fig. 7h, i).\nReactions contained E1, UBCH5B (E2), ubiquitin, Mg-ATP in ligation buffer and were incubated with bead-bound substrates, followed by washing and immunoblot detection of ubiquitinated species (anti-ubiquitin), with loading controls (anti-Lyn, -Fyn, -Src or -GFP) (n = 3 independent enzymatic assays). Complete reagent lists, complex preparation, substrate IP conditions, wash buffers, and gel/blot parameters are provided in the Supplementary Methods and Tables.\n357 (v/v) glycerol, 2 mM TCEP, supplemented with Protease Inhibitor Cocktail), and lysed\n358 by sonication. Lysates were cleared by centrifugation at 28,000 rpm for 45 min at 4 °C\n359 using a JA-30.50 rotor (Beckman Coulter, Brea, CA, USA). The cleared and filtered (0.8\n360 µm) lysate was applied to 1 mL of Strep-Tactin®XT 4Flow® resin (iba), pre-equilibrated\n361 once with wash buffer (100 mM Tris-HCl pH 8.0, 150 mM NaCl, 1 mM EDTA) and lysis\n362 buffer. The lysate was incubated on a tube roller for 16 h at 4 °C. After incubation, beads\n363 were washed with 50 mL of lysis buffer. Bound proteins were eluted with 10 mL of lysis\n364 buffer supplemented with 50 mM biotin, after 15 min incubation on a tube roller at 4 °C.\n366 Superdex 200 10/300 or 16/60 SEC column (GE Healthcare, Chicago, IL, USA),\n367 preequilibrated in SEC buffer (250 mM Tris pH 7.5, 250 mM NaCl, 10% (v/v) glycerol,\n370 Purified proteins were visualized during and after the purification by SDS-gels containing\n371 TCE (2,2,2-trichloroethanol)62. The identity of proteins was confirmed by WB and MS.\n373 In vitro ubiquitination assays\n374 The in vitro ubiquitination assays were performed as previously described8. In brief,\n375 E1 (50 nM), UBCH5B (250 nM), ubiquitin (1.5 µg), Mg-ATP (3 mM), ligation buffer,\n376 and water were pre-mixed. The premix was divided, and either CUL4A-RBX1-\n378 RBX1DDB1 (-DCAF10) (250 nM each) was added. 15 μL of each premix were incubated\n379 with substrates (endogenous Lyn or Lyn-GFP constructs) bound to beads for 1 h at 30°C\n380 with shaking. Samples were then washed four to five times with a buffer containing 50 […]\n382 EDTA, and loaded on a gradient gel (4–15%). Ubiquitination of substrates was assessed\n383 by WB using an anti-ubiquitin antibody. Equal substrate loading was evaluated by anti- […]"}, "[4]": {"system": "DLD-1 Flp-In T-REx and Lyn KO cells", "experiment": "Level of Lyn / Lyn-GFP variants after NMT1/2 and DCAF10 siRNA, Western blot", "assay_type": "cell-based, human", "details": "WB/vinculin, n = 3", "from_the_text": "To further investigate the role of the Nt-amino acid and its modification in DCAF10 recognition and DCAF10-dependent ubiquitination, we used the CRISPR/Cas9 technique to knock out Lyn in DLD-1 cell lines with T-REx Flp-In background (DLD-1 Lyn KO Flp-In T-REx) (Supplementary Fig. 7a–c). We then integrated Lyn^WT-GFP and two Nt-mutants (Lyn^G2A-GFP and Lyn^G2P-GFP) under a doxycycline-inducible promoter into the Flp-In cassette. Alanine (G2A) is expected to be efficiently acetylated by NatA, generating an Nt-acetylated Lyn mutant. Conversely, the proline (G2P) mutant, is expected not to be acetylated and may retain a free N-terminus[3],[36],[37]. Doxycycline-induced expression of Lyn^WT-GFP, Lyn^G2A-GFP, and Lyn^G2P-GFP was confirmed by Western blot, MS, and fluorescence microscopy (Supplementary Figs. 7d, e; 8a and Supplementary Data 6). While all constructs were ~2–5-fold higher expressed than endogenous Lyn, G2A and G2P were further elevated relative to WT, which may reflect increased stability when Nt-Gly/acetylation is altered (Supplementary Fig. 7e). […] Lyn^WT-GFP mirrored the behavior of endogenous Lyn under NMT1/2 siRNA treatment. Lyn levels decreased with NMT1/2 KD, but were rescued when siRNAs targeting both NMT1/2 and DCAF10 were applied (Fig. 6a, b). […] The weaker reduction of Lyn^WT-GFP may result from Lyn overexpression and the limiting availability of DCAF10.\nFig. 6 N-terminal glycine mutation abolishes DCAF10-dependent stability and ubiquitination. a DLD-1 Flp-In T-REx cells and Lyn KO cells expressing Lyn^WT-GFP, Lyn^G2A-GFP, or Lyn^G2P-GFP were induced for 24 h with 100 ng/mL doxycycline. Cells were treated with NMT1/2 siRNA, DCAF10 siRNA, or both (or left untreated) for 72 h. Representative WBs are shown. Filled circles represent siRNA treatment, empty circles untreated. b WB quantifications of Lyn levels normalized to vinculin. Purple: untreated with NMT1/2 siRNA; blue: treated with NMT1/2 siRNA. Mean ± s.d. with individual data points are shown (n = 3 independent biological replicates). c Schematic of ubiquitination experiments. Created in BioRender. […] Lysates have been treated with NMT1/2 RNAi for 72 h. i Quantification of in vitro ubiquitination assays. Mean ± s.d. with individual data points are shown (n = 3 independent ubiquitination assays). Volcano plots of Lyn-GFP^WT binding partners: j NMT1/2 siRNA ± doxycycline (Dox); k Control ± doxycycline; l NMT1/2 siRNA vs. control both with doxycycline. The −log10 adjusted p-value (two-sided Student’s t test with permutation-based multiple-testing correction; y-axis) is plotted against the log2 fold change (x-axis). Threshold for significance: −log10 p-value ≥ 1.3 (p ≤ 0.05), log2 fold change ≤ −1 or ≥ 1. DCAF10 and Lyn-GFP are marked in green, significant binding partners in purple and in blue, respectively. Source data are provided as a Source data file.\nDLD-1 Lyn knockout (KO) Flp-In T-REx cells were generated by CRISPR/Cas9 electroporation using two guide RNAs targeting the LYN locus. Editing and clone validation were confirmed by genomic sequencing, Western blotting, and MS[51]. Stable cell lines expressing doxycycline-inducible Lyn-GFP (WT, G2A, or G2P) were established by FRT/Flp-mediated recombination and validated by antibiotic selection, Western blotting, and fluorescence microscopy. Detailed protocols are provided in the Supplementary Methods and Tables.\n461 electroporated using the CM137 program. Following electroporation, the cells were kept […]"}}}
{"substance": "GCVQCKDKEAKK [Ac-Fyn, Nt-peptide of Fyn, Nt-acetylated]", "values": [{"measurement": "DCAF10 binding, Nt-Ac vs Nt-Myr (in words)", "setting": "[1]", "value": "DCAF10 selectively recognizes the acetylated form"}, {"measurement": "DCAF10 binding (in words)", "setting": "[1]; Nt-Ac vs Nt-free peptides", "value": "bound to DCAF10"}, {"measurement": "Binding to GST-DCAF10 (in words)", "setting": "[2]", "value": "bound robustly to GST-DCAF10"}]}
{"substance": "RBX1^mut: catalytically inactive variant complex (RBX1 C75A, H77A)", "values": [{"measurement": "In vitro ubiquitination (in words)", "setting": "[3]", "value": "failed to ubiquitinate any variant above background"}]}
{"substance": "endogenous Lyn: endogenous Lyn kinase of DLD-1 cells", "values": [{"measurement": "Level decrease following NMT1/2 KD", "setting": "[4]; DLD-1, 72 h NMT1/2 siRNA, 24 h doxycycline 100 ng/mL, average", "value": 31, "unit": "%"}, {"measurement": "Level increase upon combined NMT1/2 and DCAF10 KD", "setting": "[4]; DLD-1, 72 h siRNA", "value": 36.5, "unit": "%"}]}
